For the test, the target named is glucocorticoid receptor (GAL4 DBD-GR) (Homo sapiens (Human), UniProt P04150). As to the kind of experiment: GR cell-based assays (GRE agonist / GRE antagonist), CHO-Gal4/GR luciferase reporter. In a few lines: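 CHO cells stably carrying GAL4 DBD-GR ligand-binding-domain fusion and a GAL4-UAS firefly luciferase reporter were treated in Opti-MEM with 8 half-log concentrations from 10 μM to 0.003 μM (0.5% DMSO, quadruplicates). Antagonist mode measured repression of beclomethasone-induced signal. Luminescence after lysis gave EC50 or IC50.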
(In general: Reporter assays use an easily measured gene product as a stand-in for the process of interest.)

The mark [1] stands for this setting: CHO-Gal4/GR reporter cells, agonist mode (EC50) or antagonist mode against beclometasone (IC50), 6 hour incubation.

pIC50: −log10 of the molar value. Where two headings read alike, the source gives them in different places. Bounds are passed on as bounds.

Chain of glucocorticoid receptor (GAL4 DBD-GR) (P04150 524-758): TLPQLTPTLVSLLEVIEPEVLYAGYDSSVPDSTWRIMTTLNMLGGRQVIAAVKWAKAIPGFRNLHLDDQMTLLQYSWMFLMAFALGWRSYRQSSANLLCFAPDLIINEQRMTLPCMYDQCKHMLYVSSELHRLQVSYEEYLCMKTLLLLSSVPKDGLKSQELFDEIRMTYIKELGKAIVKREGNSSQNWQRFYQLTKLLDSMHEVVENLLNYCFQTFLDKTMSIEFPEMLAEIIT

On to `Cc1cccc([C@@H]2[C@@H](NC(=O)c3ncccn3)[C@@H](C)C(=O)N2c2ccc3c(cnn3-c3ccc(F)cc3)c2)c1` (racemic) [Example 74, N-[rac-(2R,3S,4R)-1-[1-(4-Fluorophenyl)-1H-indazol-5-yl]-4-methyl-2-m-tolyl-5-oxo-pyrrolidin-3-yl]-pyrimidine-2-carboxylic acid amide], for which the pIC50 (read-out: IC50 or EC50) is 6.00 to 7.00.

With `CC[C@@H]1[C@@H](NS(C)(=O)=O)[C@H](Cc2ccccc2)C(=O)N1c1ccc2c(cnn2-c2ccc(F)cc2)c1` (racemic) [Example 91, N-[rac-(2R,3S,4S)-4-Benzyl-2-ethyl-1-[1-(4-fluorophenyl)-1H-indazol-5-yl]-5-oxo-pyrrolidin-3-yl]-methanesulfonic acid amide], the pIC50 (read-out: IC50 or EC50) is 4.82 to 6.00.

In the case of `Cc1ncoc1C(=O)N[C@@H]1[C@@H](c2ccccc2)N(c2ccc3c(cnn3-c3ccc(F)cc3)c2)C(=O)C1(C)C` [Example 45a, N-((2R,3S)-1-(1-(4-fluorophenyl)-1H-indazol-5-yl)-4,4-dimethyl-5-oxo-2-phenylpyrrolidin-3-yl)-4-methyloxazole-5-carboxamide], the pIC50 under setting [1] was above 7.00.

Take `C[C@@H]1C(=O)N(c2ccc3c(cnn3-c3ccc(F)cc3)c2)[C@H](c2ccc(Cl)s2)[C@H]1NC(=O)c1ccn(C)n1` (racemic) [Example 110, N-[rac-(2S,3S,4S)-2-(5-Chloro-thiophen-2-yl)-1-[1-(4-fluorophenyl)-1H-indazol-5-yl]-4-methyl-5-oxo-pyrrolidin-3-yl]-1-methyl-1H-pyrazole-3-carboxylic acid amide]: the pIC50 (read-out: IC50 or EC50) was above 7.00.

Regarding `O=C(N[C@@H]1[C@@H](c2ccccc2)N(c2ccc3c(cnn3-c3ccc(F)cc3)c2)C(=O)C1(F)F)C1CC1` [Example 96, N-((2R,3R)-4,4-difluoro-1-(1-(4-fluorophenyl)-1H-indazol-5-yl)-5-oxo-2-phenylpyrrolidin-3-yl)cyclopropanecarboxamide], the pIC50 under setting [1] is above 7.00.

`C[C@@]1(CC(F)F)C(=O)N(c2ccc3c(cnn3-c3ccc(F)cc3)c2)[C@H](c2ccccc2)[C@H]1NC(=O)C1CC1` (racemic) [Example 136, N-(rac(2R,3S,4S)-4-(2,2-difluoroethyl)-1-(1-(4-fluorophenyl)-1H-indazol-5-yl)-4-methyl-5-oxo-2-phenylpyrrolidin-3-yl)cyclopropanecarboxamide] gave a pIC50 under setting [1] above 7.00.

As to `C[C@@H]1C(=O)N(c2ccc3c(cnn3-c3ccc(F)cc3)c2)[C@H](c2ccc(Cl)s2)[C@H]1NS(C)(=O)=O` [Example 114, N-[(2S,3S,4S)-2-(5-Chloro-thiophen-2-yl)-1-[1-(4-fluorophenyl)-1H-indazol-5-yl]-4-methyl-5-oxo-pyrrolidin-3-yl]-methanesulfonic acid amide], the pIC50 (read-out: IC50 or EC50) was 6.00 to 7.00.

Regarding `Cc1cccc([C@@H]2[C@@H](NC(=O)C3CC3)[C@@H](C)C(=O)N2c2ccc3c(cnn3-c3ccc(F)cc3)c2)c1` (racemic) [Example 70, N-[rac-(2R,3S,4R)-1-[1-(4-Fluorophenyl)-1H-indazol-5-yl]-4-methyl-2-m-tolyl-5-oxo-pyrrolidin-3-yl]-cyclopropanecarboxylic acid amide], the pIC50 (read-out: IC50 or EC50) was above 7.00.

With `C[C@H]1C(=O)N(c2ccc3c(cnn3-c3ccc(F)cc3)c2)[C@H](c2ccccc2Cl)[C@H]1NC(=O)c1cccnc1` (racemic) [Example 87, N-[rac-(2R,3S,4R)-2-(2-Chlorophenyl)-1-[1-(4-fluorophenyl)-1H-indazol-5-yl]-4-methyl-5-oxo-pyrrolidin-3-yl]-pyridine-3-carboxylic acid amide], the pIC50 (read-out: IC50 or EC50) was above 7.00.

Consider `CC(F)(F)C(=O)N[C@H]1CC(=O)N(c2ccc3c(cnn3-c3ccc(F)cc3)c2)[C@]1(C)c1ccccc1` (racemic) [Example 100, 2,2-Difluoro-N-[rac-(2R,3S)-1-[1-(4-fluorophenyl)-1H-indazol-5-yl]-2-methyl-5-oxo-2-phenyl-pyrrolidin-3-yl]-propionamide], for which the pIC50 (read-out: IC50 or EC50) is above 7.00.

In the case of `Cc1ncsc1C(=O)N[C@H]1[C@H](C)C(=O)N(c2ccc3c(cnn3-c3ccc(F)cc3)c2)[C@@H]1c1ccc(Cl)s1` (racemic) [Example 113, N-[rac-(2S,3S,4S)-2-(5-Chloro-thiophen-2-yl)-1-[1-(4-fluorophenyl)-1H-indazol-5-yl]-4-methyl-5-oxo-pyrrolidin-3-yl]-4-methyl-thiazole-5-carboxylic acid amide], the negative logarithm of the IC50 (pIC50) (read-out: IC50 or EC50) was 6.00 to 7.00.

For the compound `C[C@@]1(F)C(=O)N(c2ccc3c(cnn3-c3ccc(F)cc3)c2)[C@H](c2ccccc2)[C@H]1NC(=O)C1CC1` (racemic) [Example 129, N-[rac-(2R,3R,4S)-4-Fluoro-1-[1-(4-fluorophenyl)-1H-indazol-5-yl]-4-methyl-5-oxo-2-phenyl-pyrrolidin-3-yl]-cyclopropanecarboxylic acid amide], under “read-out: IC50 or EC50”, the pIC50 was above 7.00.

For the compound `C[C@@H]1C(=O)N(c2ccc3c(cnn3-c3ccc(F)cc3)c2)[C@H](c2ccccc2Cl)[C@H]1NC(=O)c1cccnc1` (racemic) [Example 92, N-[rac-(2R,3S,4S)-2-(2-Chlorophenyl)-1-[1-(4-fluorophenyl)-1H-indazol-5-yl]-4-methyl-5-oxo-pyrrolidin-3-yl]-pyridine-3-carboxylic acid amide], for the setting “read-out: IC50 or EC50”, the pIC50 is above 7.00.

Consider `CC[C@@H]1[C@@H](NC(=O)C(C)(F)F)[C@H](Cc2ccccc2)C(=O)N1c1ccc2c(cnn2-c2ccc(F)cc2)c1` (racemic) [Example 107, N-[rac-(2R,3S,4S)-4-Benzyl-2-ethyl-1-[1-(4-fluorophenyl)-1H-indazol-5-yl]-5-oxo-pyrrolidin-3-yl]-2,2-difluoro-propionamide], for which the pIC50 (read-out: IC50 or EC50) is 4.82 to 6.00.

Consider `C[C@H]1C(=O)N(c2ccc3c(cnn3-c3ccc(F)cc3)c2)[C@H](c2ccc(Cl)s2)[C@H]1NC(=O)C(C)(F)F` (racemic) [Example 125, N-[rac-(2S,3S,4R)-2-(5-Chloro-thiophen-2-yl)-1-[1-(4-fluorophenyl)-1H-indazol-5-yl]-4-methyl-5-oxo-pyrrolidin-3-yl]-2,2-difluoro-propionamide], for which the pIC50 (read-out: IC50 or EC50) is above 7.00.

As to `Cn1cc(C[C@@H]2C(=O)N(c3ccc4c(cnn4-c4ccc(F)cc4)c3)[C@H](c3ccccc3)[C@H]2NC(=O)C2CC2)cn1` [Example 139a, N-((2R,3S,4S)-1-(1-(4-fluorophenyl)-1H-indazol-5-yl)-4-((1-methyl-1H-pyrazol-4-yl)methyl)-5-oxo-2-phenylpyrrolidin-3-yl)cyclopropanecarboxamide], the pIC50 (read-out: IC50 or EC50) is 4.82 to 6.00.

Turning to `CC1(C)C(=O)N(c2ccc3c(cnn3-c3ccc(F)cc3)c2)[C@@H](c2ccccc2)[C@@H]1NC(=O)c1ncccn1` [Example 43b, N-((2S,3R)-1-(1-(4-fluorophenyl)-1H-indazol-5-yl)-4,4-dimethyl-5-oxo-2-phenylpyrrolidin-3-yl)pyrimidine-2-carboxamide], the pIC50 (read-out: IC50 or EC50) is 4.82 to 6.00.

`Cn1ccc(C(=O)N[C@@H]2[C@@H](c3ccccc3)N(c3ccc4c(cnn4-c4ccc(F)cc4)c3)C(=O)C2(C)C)n1` [Example 37, N-((2R,3S)-1-(1-(4-fluorophenyl)-1H-indazol-5-yl)-4,4-dimethyl-5-oxo-2-phenylpyrrolidin-3-yl)-1-methyl-1H-pyrazole-3-carboxamide] had a pIC50 under setting [1] above 7.00.

Compound `Cc1ncsc1C(=O)N[C@@H]1[C@@H](c2ccccc2)N(c2ccc3c(cnn3-c3ccc(F)cc3)c2)C(=O)C1(C)C` [Example 38b, N-((2R,3S)-1-(1-(4-fluorophenyl)-1H-indazol-5-yl)-4,4-dimethyl-5-oxo-2-phenylpyrrolidin-3-yl)-4-methylthiazole-5-carboxamide] gave a pIC50 under setting [1] above 7.00.

For `O=C(N[C@H]1C(CCc2ccccc2)C(=O)N(c2ccc3c(cnn3-c3ccc(F)cc3)c2)[C@@H]1c1ccccc1)C1CC1` (single isomer, unassigned) [Example 130], the pIC50 under setting [1] was 6.00 to 7.00.

Turning to `C[C@@H]1C(=O)N(c2ccc3c(cnn3-c3ccc(F)cc3)c2)[C@H](c2ccccc2Cl)[C@H]1NC(=O)C(C)(F)F` (racemic) [Example 47, N-[rac-(2R,3S,4S)-2-(2-Chlorophenyl)-1-[1-(4-fluorophenyl)-1H-indazol-5-yl]-4-methyl-5-oxo-pyrrolidin-3-yl]-2,2-difluoro-propionamide], the pIC50 (read-out: IC50 or EC50) is above 7.00.

For the compound `C[C@@H]1C(=O)N(c2ccc3c(cnn3-c3ccc(F)cc3)c2)[C@H](c2ccccc2)[C@H]1NC(=O)c1cccnc1` (racemic) [Example 65, N-[rac-(2R,3S,4S)-1-[1-(4-Fluorophenyl)-1H-indazol-5-yl]-4-methyl-5-oxo-2-phenyl-pyrrolidin-3-yl]-pyridine-3-carboxylic acid amide], the negative-log IC50 (pIC50) (read-out: IC50 or EC50) is above 7.00.

On to `C[C@H]1C(=O)N(c2ccc3c(cnn3-c3ccc(F)cc3)c2)[C@H](c2ccccc2Cl)[C@H]1NS(C)(=O)=O` (racemic) [Example 86, N-[rac-(2R,3S,4R)-2-(2-Chlorophenyl)-1-[1-(4-fluorophenyl)-1H-indazol-5-yl]-4-methyl-5-oxo-pyrrolidin-3-yl]-methanesulfonic acid amide], for which the pIC50 (read-out: IC50 or EC50) is above 7.00.

For the compound `CC1(C)C(=O)N(c2ccc3c(cnn3-c3ccc(F)cc3)c2)[C@@H](c2ccccc2)[C@@H]1NC(=O)c1cnco1` [Example 36b, N-((2S,3R)-1-(1-(4-fluorophenyl)-1H-indazol-5-yl)-4,4-dimethyl-5-oxo-2-phenylpyrrolidin-3-yl)oxazole-5-carboxamide], the pIC50 (read-out: IC50 or EC50) was 6.00 to 7.00.

In the case of `COc1ccc([C@@H]2[C@@H](NC(=O)c3ccn(C)n3)[C@H](C)C(=O)N2c2ccc3c(cnn3-c3ccc(F)cc3)c2)cc1` (racemic) [Example 83, N-[rac-(2R,3S,4S)-1-[1-(4-Fluorophenyl)-1H-indazol-5-yl]-2-(4-methoxyphenyl)-4-methyl-5-oxo-pyrrolidin-3-yl]-1-methyl-1H-pyrazole-3-carboxylic acid amide], the pIC50 (read-out: IC50 or EC50) was above 7.00.

Broadly, the pIC50 is the IC50 on a negative log10 scale, so that one unit is a factor of ten.

The record behind these values is patent US12358907B2, “Substituted pyrrolidine amides III” (GRÜNENTHAL GMBH, priority 2019, dated 2025).
